Reference: ChEMBL document CHEMBL1201862, “PubChem BioAssay data set” (2004)
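Five compound concentrations were applied to cells in 96-well plates for 48 hours; endpoints were derived by simple linear interpolation of the resulting dose-response curve. GI50 marks 50% less growth.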 Activity calls are given as the source filed them. No stated cut-off is given here; in the data, active = GI50 up to about 1.1 µM and inactive = higher.

Columns and labels:
Assay in all cases: DTP human tumour cell line panel, 48 h
OVCAR-3 = test system: OVCAR-3
CAKI-1 = test system: CAKI-1
TK-10 = test system: TK-10
MDA-MB-435 = test system: MDA-MB-435
SF-539 = test system: SF-539
COLO 205 = test system: COLO 205
HCT-15 = test system: HCT-15
OVCAR-5 = test system: OVCAR-5
SK-MEL-2 = test system: SK-MEL-2
SW-620 = test system: SW-620
EKVX = test system: EKVX
A498 = test system: A498
OVCAR-4 = test system: OVCAR-4
786-0 = test system: 786-0
SK-MEL-5 = test system: SK-MEL-5
ACHN = test system: ACHN
T47D = test system: T47D
NCI-H226 = test system: NCI-H226
HCT-116 = test system: HCT-116
SF-295 = test system: SF-295

Measured: GI50

CC[C@H]1C=CCC[C@@]2(C[C@@H]3CC[C@@H]4[C@H](C(=O)OCCCCCCCCCCCCCCCC(=O)O)[C@]5(CCC[C@@H](C)O5)NC(=[N+]34)N2)O1 [CRAMBESCIDIN 657]
inactive: EKVX 1.39 µM
active: OVCAR-3 0.301 µM | CAKI-1 0.182 µM | TK-10 0.367 µM | MDA-MB-435 0.141 µM | SF-539 0.272 µM | COLO 205 0.139 µM | OVCAR-5 0.221 µM | SK-MEL-2 0.127 µM | SW-620 0.189 µM | A498 0.306 µM | OVCAR-4 0.157 µM | 786-0 0.0964 µM | SK-MEL-5 0.104 µM | ACHN 0.175 µM | T47D 0.32 µM | NCI-H226 0.273 µM | HCT-116 0.169 µM | SF-295 0.163 µM
0.525 µM: HCT-15
